Assay results taken from patent US9597271B2, “Cosmetic compositions and methods” (The Procter & Gamble Company, priority 2013, dated 2017).
Where “and” joins values, the source holds several entries; their conditions need not be identical. Equal entries are not always repeated.

Experiments:
[1] = target: T1, 20S proteasome (Mus musculus, UniProt O55234); assay: Proteasomal protease in vitro assay (ProteasomeGlo, Suc-LLVY luminogenic substrate) in B16 melanoma cells; assay type: cell-based; details: for Fold Change Over Control (luminescence): B16 melanoma cells; for Ricinoleate concentration at which synergy with niacinamide is statistically significant: combined with 250 μM niacinamide
T1 construct: endogenous in cells; host or cells: B16 melanoma cells (lysate after 20-24 h treatment)
T1 sequence (O55234 60-264): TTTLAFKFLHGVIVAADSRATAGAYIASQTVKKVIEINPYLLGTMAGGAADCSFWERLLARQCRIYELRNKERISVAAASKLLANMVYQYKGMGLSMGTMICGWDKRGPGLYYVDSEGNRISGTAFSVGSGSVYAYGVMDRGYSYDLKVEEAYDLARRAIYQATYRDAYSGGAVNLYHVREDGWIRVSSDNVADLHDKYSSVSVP
Procedure: The following proteasomal protease in vitro assay was employed for evaluating activity associated with this pathway. Cultures of B16 melanoma cells (about 25% confluence) were treated with a culture media (Dulbecco's Modified Eagle Medium, 11995-065 Life technologies supplemented with 5% Fetal Bovine Serum, 30-2020, American Tissue Culture Collection and 1% Penicillin/streptomycin, 15140, Life Technologies) and one of 1) a vehicle (DMSO) containing niacinamide, 2) a vehicle (DMSO) containing one of glycerol ricinoleate, sodium ricinoleate and butyl acetyl ricinoleate at varying dilutions, 3) a vehicle (DMSO) containing a combination of niacinamide and one of the ricinoleate compounds listed above, and 4) a vehicle (DMSO) containing 2-hexyl-decanol as a positive control. The final dilution of DMSO in the culture medium was 1% in all instances. The treated melanoma cells were incubated in multi-well plates at 37° C. in a CO2 incubator for a period of 20 to 24 hours. The treated cells were thereafter lyzed by removing the culture medium and replacing it with 100 uL/well of CellGlo lysis reagent (available from Promega, Wis., USA) followed by incubation at room temperature for about 10 minutes. A luminogenic substrate containing a Suc-LLVY peptide sequence recognized by the 20S proteasome was added to the B16 cultures, and the mixtures were incubated in multi-well plates at a temperature of 25° C. for approximately 10 minutes. Luminescence counts (a unit less measurement from the plate reader) from developing the cleaved substrate with luciferase detection system (ProteasomeGlo® from Promega, Madison, Wis.) was measured in an Envision Plate Reader (Perkin Elmer, Waltham, Mass.). Other plate luminometer/luminescence readers may also be used as known in the art.
Luminescence counts for treatment groups were divided by the luminescence counts from the vehicle control (1% DMSO, as diluted in the culture medium). […] 2-hexyldecanol, a known skin tone agent, was also previously found to activate this proteasomal chymotryptic protease activity. See, e.g., Hakozaki et al., A regulator of ubiquitin-proteasome activity, 2-hexyldecanol, suppresses melanin synthesis and the appearance of facial hyperpigmented spots, British Journal of Dermatology 2013, 169 (Supp 2), pp 39-44.

[2] = target: T1, 20S proteasome; details: previously found, Hakozaki et al. 2013; cited from earlier work
[3] = experiment #1, N=3, 20 to 24 hours, DMSO vehicle
[4] = experiment #2, N=3, 20 to 24 hours, DMSO vehicle
[5] = vitamin B3 compound alone, 250 uM, B16 cells, average of 3 replicates
[6] = ricinoleate compound alone, 0.000064 w/v %, B16 cells
[7] = ricinoleate compound alone, 0.00032 w/v %, B16 cells
[8] = ricinoleate compound alone, 0.0016 w/v %, B16 cells
[9] = ricinoleate compound alone, 0.008 w/v %, B16 cells

Molecule | Fold Change Over Control (luminescence) ([1]; Avg. of experiments #1 and #2) | Fold Change Over Control (luminescence) [1, 3] | Fold Change Over Control (luminescence) [1, 4] | Net Luminescence (treatment luminescence counts − vehicle control luminescence counts) [1, 5] | Net Luminescence (treatment luminescence counts − vehicle control luminescence counts) [1, 6] | Net Luminescence (treatment luminescence counts − vehicle control luminescence counts) [1, 7] | Net Luminescence (treatment luminescence counts − vehicle control luminescence counts) [1, 8] | Net Luminescence (treatment luminescence counts − vehicle control luminescence counts) [1, 9] | further results
CCCCCCCCC(CO)CCCCCC (stereo not shown) [2-hexyldecanol, reference compound] | 1.16 | 1.15 | 1.17 | – | – | – | – | – | Activation of proteasomal chymotryptic protease activity (in words) [2]: activate
OCc1cccnc1 [3-pyridinemethanol] | – | – | – | 105 | – | – | – | – | –
CCCCCC[C@H](C/C=C\CCCCCCCC(=O)OCCCC)OC(C)=O [Butyl acetyl ricinoleate, butyl acetyl ricinoleate] | 1.29 | 1.32 | 1.26 | – | 1224 | 2164 | 2357 | 2439 | Ricinoleate concentration at which synergy with niacinamide is statistically significant ([1]; B16 cells): ≥ 0.00032%
CCCCCC[C@@H](O)C/C=C\CCCCCCCC(=O)OCC(O)CO (stereo partly shown) [Glyceryl ricinoleate, glyceryl ricinoleate] | 1.17 | 1.15 | 1.18 | – | 123 | 534 | 839 | 867 | Net Luminescence (treatment luminescence counts − vehicle control luminescence counts) ([1]; ricinoleate compound alone, 0.00032 w/v %, B16 cells, listed as GR): 287 and 518; Net Luminescence (treatment luminescence counts − vehicle control luminescence counts) ([1]; ricinoleate compound alone, 0.0016 w/v %, B16 cells, listed as GR): 745 and 1258; Net Luminescence (treatment luminescence counts − vehicle control luminescence counts) ([1]; ricinoleate compound alone, 0.008 w/v %, B16 cells, listed as GR): 789 and 1125
COC(=O)c1cccnc1 [Methyl niconate, methyl niconate] | – | – | – | 162 | – | – | – | – | –
CCCCCC[C@@H](O)C/C=C\CCCCCCCC(=O)OC [Methyl ricinoleate, methyl ricinoleate] | – | – | – | – | – | – | – | 4222 | Ricinoleate concentration at which synergy with niacinamide is statistically significant ([1]; B16 cells): 0.008%
NC(=O)c1cccnc1 [Niacinamide, niacinamide] | – | – | – | 158 (4×) and 257 (8×) and 1503 | – | – | – | – | Activation of proteasomal protease activity, single agent (in words) ([1]; B16 cells): lower level of activation
O=C(O)c1cccnc1 [Nicotinic acid, nicotinic acid] | – | – | – | 303 | – | – | – | – | –
CCCCCC[C@@H](O)C/C=C\CCCCCCCC(=O)[O-].[Na+] [Sodium ricinoleate, sodium ricinoleate] | 1.24 | 1.26 | 1.21 | – | 123 | 878 | 1805 | 2164 | –
nicotinamide ribose | – | – | – | 392 | – | – | – | – | –
